This passage reports inhibition and melting point results from patent publication US7998989B2, “2-Imino-1,3-thiazoline-based compounds and T-type calcium channel inhibitors containing the same” (Korea Institute of Science and Technology, priority 2007, dated 2011).

Series [1] deals with T1, α1G T-type calcium channel (Homo sapiens, UniProt O43497).
T1 construct: host or cells: HEK293
Description: Assay for % inhibiting activity against T-type calcium channel using FDSS6000 (fluo-3 calcium imaging, KCl activation). Type of series: cell-based. As to conditions: HEK293, 10 μM; HEK293 cells stably expressing α1G T-type calcium channel and Kir2.1; compounds of the examples; read-out: FDSS (% inhibition)/10uM. The procedure, abridged: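 HEK293 cells stably expressing α1G and Kir2.1 loaded with 5 μM fluo-3/AM, then in HEPES buffer (pH 7.4) with 10 mM CaCl2. Compound applied 75 s before 75 mM KCl; intracellular Ca2+ read as […] area, % inhibition relative to untreated control.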

T1 sequence (O43497 whole entry): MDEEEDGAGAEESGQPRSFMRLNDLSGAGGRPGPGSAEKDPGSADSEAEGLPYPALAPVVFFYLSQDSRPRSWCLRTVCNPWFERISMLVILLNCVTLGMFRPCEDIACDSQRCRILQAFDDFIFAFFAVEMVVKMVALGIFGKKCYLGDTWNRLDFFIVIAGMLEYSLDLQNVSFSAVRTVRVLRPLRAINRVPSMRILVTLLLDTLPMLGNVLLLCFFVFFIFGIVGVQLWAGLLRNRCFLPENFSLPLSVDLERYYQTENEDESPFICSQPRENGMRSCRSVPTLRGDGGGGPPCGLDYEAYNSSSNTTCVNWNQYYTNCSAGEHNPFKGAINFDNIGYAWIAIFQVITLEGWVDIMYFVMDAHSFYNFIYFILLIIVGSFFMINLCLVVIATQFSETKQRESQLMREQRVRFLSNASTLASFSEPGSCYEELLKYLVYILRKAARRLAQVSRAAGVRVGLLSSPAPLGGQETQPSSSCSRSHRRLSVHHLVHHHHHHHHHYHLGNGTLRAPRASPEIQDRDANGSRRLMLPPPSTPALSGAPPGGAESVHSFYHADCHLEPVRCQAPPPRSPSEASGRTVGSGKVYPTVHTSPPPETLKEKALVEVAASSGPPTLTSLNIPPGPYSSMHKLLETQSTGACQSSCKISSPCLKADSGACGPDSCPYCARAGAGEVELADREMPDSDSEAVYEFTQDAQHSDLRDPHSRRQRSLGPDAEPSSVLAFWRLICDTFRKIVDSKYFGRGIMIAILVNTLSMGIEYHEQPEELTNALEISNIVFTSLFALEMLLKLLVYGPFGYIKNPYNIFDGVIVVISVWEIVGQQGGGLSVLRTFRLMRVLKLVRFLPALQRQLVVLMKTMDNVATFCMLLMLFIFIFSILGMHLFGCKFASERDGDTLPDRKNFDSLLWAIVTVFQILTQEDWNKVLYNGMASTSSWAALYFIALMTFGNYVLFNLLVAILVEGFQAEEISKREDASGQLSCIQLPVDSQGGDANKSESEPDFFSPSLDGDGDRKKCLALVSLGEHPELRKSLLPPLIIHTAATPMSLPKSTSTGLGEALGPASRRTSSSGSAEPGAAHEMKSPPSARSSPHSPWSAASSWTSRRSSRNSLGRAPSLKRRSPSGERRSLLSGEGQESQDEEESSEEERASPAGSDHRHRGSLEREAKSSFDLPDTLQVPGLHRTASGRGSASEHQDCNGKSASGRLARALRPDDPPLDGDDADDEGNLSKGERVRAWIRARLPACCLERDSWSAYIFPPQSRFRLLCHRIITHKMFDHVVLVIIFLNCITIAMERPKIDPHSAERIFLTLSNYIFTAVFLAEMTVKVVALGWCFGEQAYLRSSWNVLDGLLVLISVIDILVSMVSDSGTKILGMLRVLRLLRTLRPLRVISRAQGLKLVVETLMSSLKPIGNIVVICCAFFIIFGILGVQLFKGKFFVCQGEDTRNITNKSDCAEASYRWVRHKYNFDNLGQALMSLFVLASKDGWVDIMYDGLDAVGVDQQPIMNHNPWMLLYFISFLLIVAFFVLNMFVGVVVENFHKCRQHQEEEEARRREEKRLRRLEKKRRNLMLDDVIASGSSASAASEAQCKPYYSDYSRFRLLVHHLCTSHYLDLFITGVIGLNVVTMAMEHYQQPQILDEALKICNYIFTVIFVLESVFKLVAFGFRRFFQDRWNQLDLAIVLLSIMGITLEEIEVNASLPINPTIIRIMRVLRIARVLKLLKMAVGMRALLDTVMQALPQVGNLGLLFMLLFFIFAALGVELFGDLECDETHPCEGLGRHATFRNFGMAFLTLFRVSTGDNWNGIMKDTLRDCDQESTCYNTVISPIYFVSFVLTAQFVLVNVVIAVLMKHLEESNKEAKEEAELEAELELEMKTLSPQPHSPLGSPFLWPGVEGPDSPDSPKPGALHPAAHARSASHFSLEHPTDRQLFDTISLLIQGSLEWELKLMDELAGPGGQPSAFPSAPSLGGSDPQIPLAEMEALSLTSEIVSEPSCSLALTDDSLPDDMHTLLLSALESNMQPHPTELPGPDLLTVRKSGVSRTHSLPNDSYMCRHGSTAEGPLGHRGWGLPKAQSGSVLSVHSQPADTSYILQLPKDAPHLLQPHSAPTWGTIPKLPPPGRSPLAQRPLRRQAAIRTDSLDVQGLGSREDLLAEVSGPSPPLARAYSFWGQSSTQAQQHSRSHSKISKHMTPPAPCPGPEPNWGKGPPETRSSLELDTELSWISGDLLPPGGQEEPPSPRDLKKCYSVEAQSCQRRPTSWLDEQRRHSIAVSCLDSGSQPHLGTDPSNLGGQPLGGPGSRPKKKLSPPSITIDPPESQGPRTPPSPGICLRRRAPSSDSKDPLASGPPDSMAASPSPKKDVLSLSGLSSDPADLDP

For orientation: melting point means the temperature of the solid-liquid transition. `CN1C(=NC2CCCCCC2)SCC1C(=O)Nc1ccccc1Br.Cl` (stereo not drawn) [KHG24634, (2-cycloheptylimino-3-methyl-1,3-thiazolidine-4-yl)-N-(2-bromophenyl)-carboxamide hydrochloride] registered a melting point of 232.8 °C. For the same compound, the inhibition at 10 µM in series [1] is 46.9%.
The compound `CC1SC(=NC2CCCCC2)N(C)C1CC(=O)Nc1cccc(F)c1.Cl` (stereo not drawn) [KHG24636, (2-cyclohexylimino-3,5-dimethyl-1,3-thiazolidine-4-yl)-N-(3-fluorophenyl)-acetamide hydrochloride] returned a melting point of 257 to 259 °C. For the same compound, the inhibition at 10 µM in series [1] stood at 35.2%.
As to `CC1SC(=NC2CCCCCC2)N(C)C1CC(=O)Nc1ccccc1.Cl` (stereo not drawn) [KHG24638, (2-cycloheptylimino-3,5-dimethyl-1,3-thiazolidine-4-yl)-N-phenyl-acetamide hydrochloride], the melting point was in the range of 236 to 238 °C. For the same compound, in series [1], the inhibition at 10 µM amounted to 40.8%.
In the case of `Cc1ccc(NC(=O)CC2C(C)SC(=NC3CCCCCC3)N2C)cc1.Cl` (stereo not drawn) [KHG24639, (2-cycloheptylimino-3,5-dimethyl-1,3-thiazolidine-4-yl)-N-(4-methylphenyl)-acetamide hydrochloride], the melting point was 248 to 250 °C. Also, the inhibition at 10 µM in series [1] worked out at 48.5%.
In turn, `CC1SC(=NC2CCCCCC2)N(C)C1CC(=O)Nc1ccccc1F.Cl` (stereo not drawn) [KHG24640, (2-cycloheptylimino-3,5-dimethyl-1,3-thiazolidine-4-yl)-N-(2-fluorophenyl)-acetamide hydrochloride] came in with a melting point of 197 to 199 °C. For the same compound, in series [1], the inhibition at 10 µM came out at 39.6%.
The corresponding values for `CC1SC(=NC2CCCCCC2)N(C)C1CC(=O)Nc1cccc(F)c1.Cl` (stereo not drawn) [KHG24641, (2-cycloheptylimino-3,5-dimethyl-1,3-thiazolidine-4-yl)-N-(3-fluorophenyl)-acetamide hydrochloride] are 247 to 249 °C and 63.5%.
On to `CC1SC(=NC2CCCCCC2)N(C)C1CC(=O)Nc1ccc([N+](=O)[O-])cc1.Cl` (stereo not drawn) [KHG24642, (2-cycloheptylimino-3,5-dimethyl-1,3-thiazolidine-4-yl)-N-(4-nitrophenyl)-acetamide hydrochloride], for which the melting point fell in the range of 255 to 258 °C. Further, the inhibition at 10 µM in series [1] was 66.7%.
For the compound `CC1SC(=NC2CCCCCC2)N(C)C1CC(=O)Nc1ccc(Cl)cc1.Cl` (stereo not drawn) [KHG24643, (2-cycloheptylimino-3,5-dimethyl-1,3-thiazolidine-4-yl)-N-(4-chlorophenyl)-acetamide hydrochloride], the melting point was in the range of 240 to 242 °C. The inhibition at 10 µM in series [1] amounted to 65.4%.
Taken in the same sequence, the figures for `CC1SC(=NC2CCCCCC2)N(C)C1CC(=O)Nc1cc(Cl)cc(Cl)c1.Cl` (stereo not drawn) [KHG24644, (2-cycloheptylimino-3,5-dimethyl-1,3-thiazolidine-4-yl)-N-(3,5-dichlorophenyl)-acetamide hydrochloride] were 248 to 250 °C and 53.4%.
`CC1SC(=NC2CCCCCC2)N(C)C1CC(=O)Nc1cc([N+](=O)[O-])ccc1F.Cl` (stereo not drawn) [KHG24645, (2-cycloheptylimino-3,5-dimethyl-1,3-thiazolidine-4-yl)-N-(2-fluoro-5-nitrophenyl)-acetamide hydrochloride] had a melting point of 248 to 251 °C. The inhibition at 10 µM in series [1] worked out at 48.4%.
The compound `CC1SC(=NC2CCCCCC2)N(C)C1CC(=O)Nc1cc(C(F)(F)F)cc(C(F)(F)F)c1.Cl` (stereo not drawn) [KHG24646, (2-cycloheptylimino-3,5-dimethyl-1,3-thiazolidine-4-yl)-N-(3,5-ditrifluoromethylphenyl)-acetamide hydrochloride] showed a melting point of 217 to 219 °C. Besides, in series [1], the inhibition at 10 µM was found to be 58.1%.
With `CC1SC(=NC2CCCCCC2)N(C)C1CC(=O)Nc1ccc(OC(F)(F)F)cc1.Cl` (stereo not drawn) [KHG24647, (2-cycloheptylimino-3,5-dimethyl-1,3-thiazolidine-4-yl)-N-(4-trifluoromethoxyphenyl)-acetamide hydrochloride], the melting point was 247 to 271 °C. Besides, the inhibition at 10 µM in series [1] came out at 62.4%.
